Literature values as cited in US20070015728A1, “Metered-dose and safety and compliance packaging for systemic anticancer therapy” (priority 2005, published 2007).

Tests used:
OPRT = molecular target: T1, OPRT (Homo sapiens, UniProt P11172); details: neutral pH
T1 sequence (P11172 1-480): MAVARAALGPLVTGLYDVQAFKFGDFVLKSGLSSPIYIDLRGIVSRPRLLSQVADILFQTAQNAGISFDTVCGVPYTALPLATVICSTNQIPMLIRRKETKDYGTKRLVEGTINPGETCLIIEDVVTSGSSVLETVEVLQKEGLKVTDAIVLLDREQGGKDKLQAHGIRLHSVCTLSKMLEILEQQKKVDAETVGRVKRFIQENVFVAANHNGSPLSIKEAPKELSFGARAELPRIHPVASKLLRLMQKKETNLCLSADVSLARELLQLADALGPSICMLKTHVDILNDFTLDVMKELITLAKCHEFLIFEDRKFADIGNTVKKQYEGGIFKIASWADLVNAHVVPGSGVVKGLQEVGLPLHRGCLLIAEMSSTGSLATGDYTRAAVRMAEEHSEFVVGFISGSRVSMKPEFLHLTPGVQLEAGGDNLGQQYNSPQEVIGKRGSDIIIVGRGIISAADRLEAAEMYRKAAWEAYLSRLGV

hand-foot syndrome (HFS) = details: treatment with capecitabine at the FDA-approved dose; XELODA product insert

Compound | Km for OPRT, fold lower than 5-FU (OPRT) [fold] | grade 3 incidence of HFS (hand-foot syndrome (HFS)) | incidence of HFS irrespective of grade (hand-foot syndrome (HFS))
O=C(O)c1cc(=O)[nH]c(=O)[nH]1 [Orotate] | ~50 |  | 
CCCCCOC(=O)Nc1nc(=O)n([C@@H]2O[C@H](C)[C@@H](O)[C@H]2O)cc1F [Xeloda, Capecitabine] |  | 11-17% | 54%-67%
